Laboratory results from ChEMBL document CHEMBL5465560, “Selectivity Literature for EUbOPEN Chemogenomic Library” (2024).
Each block holds one compound with its values, some of them ahead of it.

Key:
[1] = target: T1, Phosphatidylinositol 3-kinase C2 domain-containing subunit gamma (Homo sapiens) (UniProt O75747); assay: Selectivity interaction (Ambit KINOMEscan and KiNATiv profiling in Jurkat cells) EUB0000090b PIK3C2G; assay type: cell-based; conditions: at 1 µM
T1 sequence (whole entry): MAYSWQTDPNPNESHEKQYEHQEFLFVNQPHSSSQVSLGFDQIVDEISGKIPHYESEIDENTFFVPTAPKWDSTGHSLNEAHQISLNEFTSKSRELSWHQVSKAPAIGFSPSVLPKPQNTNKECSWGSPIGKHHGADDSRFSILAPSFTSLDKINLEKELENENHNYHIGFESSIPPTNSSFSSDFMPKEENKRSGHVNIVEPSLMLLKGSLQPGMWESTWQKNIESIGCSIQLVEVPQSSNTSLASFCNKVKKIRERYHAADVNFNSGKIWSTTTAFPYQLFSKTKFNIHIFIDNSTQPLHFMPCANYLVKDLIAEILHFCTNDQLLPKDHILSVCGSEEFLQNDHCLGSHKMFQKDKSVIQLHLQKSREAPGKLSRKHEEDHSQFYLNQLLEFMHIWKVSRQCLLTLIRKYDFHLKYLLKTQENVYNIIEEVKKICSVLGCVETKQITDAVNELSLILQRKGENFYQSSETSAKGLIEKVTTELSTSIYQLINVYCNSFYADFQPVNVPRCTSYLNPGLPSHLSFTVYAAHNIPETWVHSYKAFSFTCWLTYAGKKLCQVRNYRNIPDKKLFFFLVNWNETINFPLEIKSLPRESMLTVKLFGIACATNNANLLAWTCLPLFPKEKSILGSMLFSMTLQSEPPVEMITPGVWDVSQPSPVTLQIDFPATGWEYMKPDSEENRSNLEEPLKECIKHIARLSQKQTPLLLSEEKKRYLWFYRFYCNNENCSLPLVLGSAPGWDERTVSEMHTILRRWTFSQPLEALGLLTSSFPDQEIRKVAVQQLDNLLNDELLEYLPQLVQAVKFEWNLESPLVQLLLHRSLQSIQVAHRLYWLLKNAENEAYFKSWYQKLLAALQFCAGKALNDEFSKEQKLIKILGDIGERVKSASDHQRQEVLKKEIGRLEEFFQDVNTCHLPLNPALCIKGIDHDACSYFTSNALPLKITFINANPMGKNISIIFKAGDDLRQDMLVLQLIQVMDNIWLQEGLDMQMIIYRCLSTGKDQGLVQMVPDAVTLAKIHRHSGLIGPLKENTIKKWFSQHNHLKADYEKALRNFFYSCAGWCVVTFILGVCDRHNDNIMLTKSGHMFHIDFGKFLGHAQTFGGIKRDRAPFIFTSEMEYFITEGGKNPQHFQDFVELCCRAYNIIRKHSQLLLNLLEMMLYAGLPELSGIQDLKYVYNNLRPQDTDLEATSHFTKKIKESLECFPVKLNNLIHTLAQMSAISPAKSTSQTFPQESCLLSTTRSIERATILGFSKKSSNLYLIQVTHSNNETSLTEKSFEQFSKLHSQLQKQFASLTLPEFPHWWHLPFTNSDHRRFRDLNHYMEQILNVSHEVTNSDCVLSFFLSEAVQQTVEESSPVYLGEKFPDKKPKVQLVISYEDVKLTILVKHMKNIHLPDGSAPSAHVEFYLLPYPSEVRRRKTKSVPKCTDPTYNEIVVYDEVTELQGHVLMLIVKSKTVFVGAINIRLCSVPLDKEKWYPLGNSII

[2] = target: T2, Lymphokine-activated killer T-cell-originated protein kinase (Homo sapiens) (UniProt Q96KB5); assay: Selectivity interaction (Kinase panel (literature)) EUB0001199aCl PBK; conditions: at 1 µM
T2 sequence (whole entry): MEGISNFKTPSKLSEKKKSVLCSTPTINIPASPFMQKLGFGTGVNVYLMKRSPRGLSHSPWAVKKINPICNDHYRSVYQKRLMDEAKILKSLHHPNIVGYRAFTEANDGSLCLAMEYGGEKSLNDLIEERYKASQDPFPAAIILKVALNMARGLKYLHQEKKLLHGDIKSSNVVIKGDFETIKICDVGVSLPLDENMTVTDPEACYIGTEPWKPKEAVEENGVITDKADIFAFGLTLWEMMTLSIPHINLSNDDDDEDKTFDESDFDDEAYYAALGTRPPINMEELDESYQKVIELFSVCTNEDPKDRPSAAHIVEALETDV

[3] = target: Calcium/calmodulin-dependent protein kinase type II subunit alpha (Homo sapiens, UniProt Q9UQM7); assay: Selectivity interaction (SelectScreen profiling (Invitrogen)) EUB0000607a CAMK2A; conditions: at 2 µM
[4] = target: T3, Phosphatidylinositol 4,5-bisphosphate 3-kinase catalytic subunit delta isoform (Homo sapiens) (UniProt O00329); assay: Selectivity interaction (Kinase panel (Invitrogen)) EUB0000639a PIK3CD; conditions: at 200 nM
T3 sequence (whole entry): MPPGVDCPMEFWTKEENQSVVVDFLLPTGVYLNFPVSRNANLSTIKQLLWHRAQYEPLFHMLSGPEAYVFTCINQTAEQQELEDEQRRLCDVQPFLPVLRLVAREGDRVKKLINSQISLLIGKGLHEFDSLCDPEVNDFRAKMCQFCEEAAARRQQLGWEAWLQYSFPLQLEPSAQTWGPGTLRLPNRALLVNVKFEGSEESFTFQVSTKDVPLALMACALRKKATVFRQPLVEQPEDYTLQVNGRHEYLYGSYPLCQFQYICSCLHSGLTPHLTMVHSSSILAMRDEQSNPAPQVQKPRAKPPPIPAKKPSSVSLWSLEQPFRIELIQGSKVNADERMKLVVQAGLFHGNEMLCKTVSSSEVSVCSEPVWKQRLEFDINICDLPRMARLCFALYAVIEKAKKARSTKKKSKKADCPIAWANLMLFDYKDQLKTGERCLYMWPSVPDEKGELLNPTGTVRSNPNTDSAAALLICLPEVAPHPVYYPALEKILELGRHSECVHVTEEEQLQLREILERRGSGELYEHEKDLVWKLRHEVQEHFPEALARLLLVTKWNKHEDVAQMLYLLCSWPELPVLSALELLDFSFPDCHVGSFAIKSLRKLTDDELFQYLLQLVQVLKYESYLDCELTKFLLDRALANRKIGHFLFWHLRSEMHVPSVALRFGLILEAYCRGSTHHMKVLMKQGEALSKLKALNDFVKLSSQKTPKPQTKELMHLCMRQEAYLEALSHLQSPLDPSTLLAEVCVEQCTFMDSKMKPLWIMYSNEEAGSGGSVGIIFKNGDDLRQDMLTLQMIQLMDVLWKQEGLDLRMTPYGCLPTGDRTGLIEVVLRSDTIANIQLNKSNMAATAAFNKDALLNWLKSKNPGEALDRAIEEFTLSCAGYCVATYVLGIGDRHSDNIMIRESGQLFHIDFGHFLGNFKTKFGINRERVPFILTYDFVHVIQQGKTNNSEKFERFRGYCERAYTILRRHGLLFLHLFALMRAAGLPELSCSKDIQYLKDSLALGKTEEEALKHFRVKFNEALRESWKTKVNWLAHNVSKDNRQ

Sequence of Calcium/calmodulin-dependent protein kinase type II subunit alpha (Q9UQM7 whole entry, canonical isoform): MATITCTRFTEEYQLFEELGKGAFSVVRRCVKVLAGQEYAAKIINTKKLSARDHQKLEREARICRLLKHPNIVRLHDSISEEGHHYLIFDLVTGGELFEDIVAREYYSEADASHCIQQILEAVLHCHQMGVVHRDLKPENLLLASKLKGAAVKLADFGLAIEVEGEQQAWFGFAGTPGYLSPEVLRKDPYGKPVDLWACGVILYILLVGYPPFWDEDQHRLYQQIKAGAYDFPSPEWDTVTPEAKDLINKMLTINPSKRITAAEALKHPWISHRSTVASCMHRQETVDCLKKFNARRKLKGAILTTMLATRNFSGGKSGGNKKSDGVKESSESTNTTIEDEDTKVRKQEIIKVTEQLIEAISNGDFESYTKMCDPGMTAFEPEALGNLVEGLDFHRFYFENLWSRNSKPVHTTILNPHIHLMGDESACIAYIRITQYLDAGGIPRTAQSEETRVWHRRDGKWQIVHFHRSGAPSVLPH

Compound: CN(C)C/C=C/C(=O)Nc1ccc(C(=O)N2CCCC(Nc3ncc(Cl)c(-c4c[nH]c5ccccc45)n3)C2)cc1 (centres undefined)
- % of control [1]: 100%

Compound: CN1Cc2nccc(-c3cn(C)nc3-c3ccc(F)cc3)c2C1=O
- % of inhibition [2]: -3%

Compound: CNC(=O)Nc1ccc(-c2nc(N3CC4CCC(C3)O4)c3cnn(C4CCC5(CC4)OCCO5)c3n2)cc1
- % of inhibition [3]: 0%

- % of inhibition [4]: 1.5%
Compound: CC[C@@H]1[C@H](F)C(=O)N[C@@H]1COc1nccc2cc(C(N)=O)c(OC)cc12 [ZIMLOVISERTIB]
